Legend:
[1] = HCT-116 Cellular Cytotoxicity Assay; details: human, HCT-116 cells, pH 7.2
Procedure: The purpose of this assay is to determine if any of the synthesized compounds are cytotoxic against HCT-116 cells, as measured by resazurin metabolism. Resazurin is metabolized only by living cells from a non-fluorescent molecule into Resorufin, a highly red fluorescent dye. […] The cells were cultured in an incubator at 37° C. in 5% CO2 and 95% humidified air. […] The final concentration DMSO was 0.5% (v/v) in all samples. The plates were returned to the incubator for 72 hours. Following 72 hours of test compound exposure, 10 μL of 0.2 mg/mL Resazurin (Sigma) in phosphate buffered saline was added to each well and the plate was returned to the incubator for 3-6 hours. Since living cells metabolize Resazurin, the fluorescence of the reduction product of Resazurin was measured using a microplate fluorometer with λex=531 nm and λem=590 nm filters. Resazurin dye in medium without cells was used to determine the background, which was subtracted from the data for all experimental wells.

USP7 = molecular target: T1, USP7 (Homo sapiens, UniProt Q93009); test: USP7, Ub-PLA2 assay; assay type: biochemical; details: Ub-PLA2 / NBD C6-HPC fluorescence, 30 minute preincubation; read-out: EC50 for inhibition of USP7
T1 construct: full length human USP7 protein; made in house
How it was run: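 Compounds tested against USP7 with DMSO vehicle control and NEM-treated wells as background. Fluorescence (RFU) read-out; % inhibition normalized per plate to mean DMSO and NEM controls.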

T1 sequence (Q93009 whole entry): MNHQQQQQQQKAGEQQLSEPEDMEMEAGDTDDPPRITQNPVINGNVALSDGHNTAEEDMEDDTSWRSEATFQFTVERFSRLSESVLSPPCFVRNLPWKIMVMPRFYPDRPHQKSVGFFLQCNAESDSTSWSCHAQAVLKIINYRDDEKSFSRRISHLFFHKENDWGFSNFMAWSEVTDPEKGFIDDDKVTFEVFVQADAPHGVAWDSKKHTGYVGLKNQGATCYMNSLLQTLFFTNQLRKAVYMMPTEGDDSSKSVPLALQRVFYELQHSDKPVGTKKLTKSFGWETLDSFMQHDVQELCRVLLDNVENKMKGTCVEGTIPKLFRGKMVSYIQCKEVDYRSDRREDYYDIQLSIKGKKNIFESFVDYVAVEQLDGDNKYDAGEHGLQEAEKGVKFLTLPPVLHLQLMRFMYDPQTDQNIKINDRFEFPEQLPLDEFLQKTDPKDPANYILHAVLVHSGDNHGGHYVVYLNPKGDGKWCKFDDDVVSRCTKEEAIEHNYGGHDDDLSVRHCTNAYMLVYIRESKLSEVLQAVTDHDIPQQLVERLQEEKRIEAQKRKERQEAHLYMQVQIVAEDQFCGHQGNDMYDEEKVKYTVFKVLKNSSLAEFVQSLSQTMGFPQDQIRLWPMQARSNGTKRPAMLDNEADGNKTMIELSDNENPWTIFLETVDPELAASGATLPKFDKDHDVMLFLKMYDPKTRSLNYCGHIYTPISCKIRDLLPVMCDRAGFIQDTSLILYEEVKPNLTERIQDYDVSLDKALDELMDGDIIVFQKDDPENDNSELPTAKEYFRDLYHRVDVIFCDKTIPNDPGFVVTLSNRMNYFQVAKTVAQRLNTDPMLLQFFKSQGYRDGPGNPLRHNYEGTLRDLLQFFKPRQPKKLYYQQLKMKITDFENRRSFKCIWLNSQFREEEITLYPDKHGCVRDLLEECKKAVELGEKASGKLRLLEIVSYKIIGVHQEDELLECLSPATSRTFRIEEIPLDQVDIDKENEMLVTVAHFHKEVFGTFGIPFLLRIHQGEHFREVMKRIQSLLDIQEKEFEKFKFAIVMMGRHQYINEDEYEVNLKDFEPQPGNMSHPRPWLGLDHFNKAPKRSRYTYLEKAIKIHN

SMILES	EC50 at 72 h [1]	EC50 (USP7)
COc1cc(NC(=O)c2cc(C#N)c(Sc3c(Cl)cncc3Cl)s2)ccc1OCCCN(C)C [Example 205, 4-cyano-5-((3,5-dichloropyridin-4-yl)thio)-N-(4-(3-(dimethylamino)propoxy)-3-methoxyphenyl)thiophene-2-carboxamide]	3.1 µM	≤ 1 µM
CC(=O)c1cc([N+](=O)[O-])c(Sc2cc(Cl)cc(Cl)c2)s1 [Example 9, 1-[5-(3,5-Dichlorophenylsulfanyl)-4-nitro-2-thienyl]ethanone]	8.13 µM	1 to 10 µM
O=C(NCCN1CCOCC1)c1cc([N+](=O)[O-])c(Sc2c(Cl)cncc2Cl)s1 [Example 59, 5-((3,5-dichloropyridin-4-yl)thio)-N-(2-morpholinoethyl)-4-nitrothiophene-2-carboxamide]		1 to 10 µM
O=C(Nc1cccc(Br)c1)c1cc([N+](=O)[O-])c(Sc2c(Cl)cncc2Cl)s1 [Example 133, N-(3-bromophenyl)-5-((3,5-dichloropyridin-4-yl)thio)-4-nitrothiophene-2-carboxamide]		≤ 1 µM
O=C(CNC(=O)c1cc([N+](=O)[O-])c(Sc2c(Cl)cncc2Cl)s1)NC1CCCCC1 [Example 220]		1 to 10 µM
CN(C)c1ccc(NC(=O)c2cc([N+](=O)[O-])c(Sc3c(Cl)cncc3Cl)s2)cc1 [Example 86, 5-((3,5-dichloropyridin-4-yl)thio)-N-(4-(dimethylamino)phenyl)-4-nitrothiophene-2-carboxamide]		1 to 10 µM
CC(=O)c1cc([N+](=O)[O-])c(Sc2nccs2)s1 [Example 14, 1-(4-nitro-5-thiazol-2-ylsulfanyl-2-thienyl)ethanone]		> 10 µM
CN1C2CCC1CC(NC(=O)c1cc([N+](=O)[O-])c(Sc3c(Cl)cncc3Cl)s1)C2 (stereo not shown) [Example 184, 5-((3,5-dichloropyridin-4-yl)thio)-N-(8-methyl-8-azabicyclo[3.2.1]octan-3-yl)-4-nitrothiophene-2-carboxamide]		≤ 1 µM
O=[N+]([O-])c1cc(Br)sc1Sc1ccc(Cl)cc1Cl [Example 33, 5-bromo-2-(2,4-dichlorophenyl)sulfanyl-3-nitro-thiophene]		> 10 µM
COCCNC(=O)c1cc([N+](=O)[O-])c(Sc2c(Cl)cncc2Cl)s1 [Example 53, 5-((3,5-dichloropyridin-4-yl)thio)-N-(2-methoxyethyl)-4-nitrothiophene-2-carboxamide]		1 to 10 µM
CC(=O)c1cc([N+](=O)[O-])c(Sc2cc(C(F)(F)F)cc(C(F)(F)F)c2)s1 [Example 40, 1-[5-[3,5-bis(trifluoromethyl)phenyl]sulfanyl-4-nitro-2-thienyl]ethanone]		1 to 10 µM
CC(C)N1CCC(NC(=O)c2cc([N+](=O)[O-])c(Sc3nc4ccccc4s3)s2)CC1 [Example 253, 5-(benzo[d]thiazol-2-ylthio)-N-(1-isopropylpiperidin-4-yl)-4-nitrothiophene-2-carboxamide]		1 to 10 µM
O=C(Nc1cccc(Cl)c1)c1cc([N+](=O)[O-])c(Sc2c(Cl)cncc2Cl)s1 [Example 142, N-(3-chlorophenyl)-5-((3,5-dichloropyridin-4-yl)thio)-4-nitrothiophene-2-carboxamide]		≤ 1 µM
CC(=O)c1cc([N+](=O)[O-])c(Sc2ccc([N+](=O)[O-])cc2)s1 [Example 13, 1-[4-nitro-5-(4-nitrophenylsulfanyl)-2-thienyl]ethanone]		1 to 10 µM
O=C(c1cccc([N+](=O)[O-])c1)c1cc([N+](=O)[O-])c(Sc2ccc(Cl)cc2Cl)s1 [Example 31, [5-(2,4-dichlorophenyl)sulfanyl-4-nitro-2-thienyl]-(3-nitrophenyl)methanone]		> 10 µM
CC(C)(C)OC(=O)CNC(=O)c1cc([N+](=O)[O-])c(Sc2c(Cl)cncc2Cl)s1 [Example 62, tert-butyl 2-(5-((3,5-dichloropyridin-4-yl)thio)-4-nitrothiophene-2-carboxamido)acetate]		1 to 10 µM
CN1CCC(NC(=O)CNC(=O)c2cc([N+](=O)[O-])c(Sc3c(Cl)cncc3Cl)s2)CC1 [Example 222, 5-((3,5-dichloropyridin-4-yl)thio)-N-(2-((1-methylpiperidin-4-yl)amino)-2-oxoethyl)-4-nitrothiophene-2-carboxamide]		≤ 1 µM
CN(C)c1cccc(CNC(=O)c2cc([N+](=O)[O-])c(Sc3c(Cl)cncc3Cl)s2)c1 [Example 146, 5-((3,5-dichloropyridin-4-yl)thio)-N-(3-(dimethylamino)benzyl)-4-nitrothiophene-2-carboxamide]		≤ 1 µM
O=C(Nc1c(Cl)cccc1Cl)c1cc([N+](=O)[O-])c(Sc2c(Cl)cncc2Cl)s1 [Example 135, N-(2,6-dichlorophenyl)-5-((3,5-dichloropyridin-4-yl)thio)-4-nitrothiophene-2-carboxamide]		≤ 1 µM

SMILES	EC50 at 72 h [1]	EC50 (USP7)
C[S+]([O-])CCCNC(=O)c1cc([N+](=O)[O-])c(Sc2c(Cl)cncc2Cl)s1 (stereo not shown) [Example 244, 5-((3,5-dichloropyridin-4-yl)thio)-N-(3-(methylsulfinyl)propyl)-4-nitrothiophene-2-carboxamide]		1 to 10 µM
O=C(NCC(=O)N1CCCC(O)C1)c1cc([N+](=O)[O-])c(Sc2c(Cl)cncc2Cl)s1 (stereo not shown) [Example 212, 5-((3,5-dichloropyridin-4-yl)thio)-N-(2-(3-hydroxypiperidin-1-yl)-2-oxoethyl)-4-nitrothiophene-2-carboxamide]		1 to 10 µM
O=C(Nc1ccc(Cl)cc1Cl)c1cc([N+](=O)[O-])c(Sc2c(Cl)cncc2Cl)s1 [Example 141, N-(2,4-dichlorophenyl)-5-((3,5-dichloropyridin-4-yl)thio)-4-nitrothiophene-2-carboxamide]		≤ 1 µM
O=C1COc2ccc(Sc3sc(C(=O)Nc4cc(C5CC5)n[nH]4)cc3[N+](=O)[O-])cc2N1 [Example 248, N-(3-cyclopropyl-1H-pyrazol-5-yl)-4-nitro-5-((3-oxo-3,4-dihydro-2H-benzo[b][1,4]oxazin-6-yl)thio)thiophene-2-carboxamide]		1 to 10 µM
O=C(NCCN1CCCCC1)c1cc([N+](=O)[O-])c(Sc2c(Cl)cncc2Cl)s1 [Example 161, 5-((3,5-dichloropyridin-4-yl)thio)-4-nitro-N-(2-(piperidin-1-yl)ethyl)thiophene-2-carboxamide]		≤ 1 µM
O=C(NCCc1ccccc1)c1cc([N+](=O)[O-])c(Sc2c(Cl)cncc2Cl)s1 [Example 96, 5-((3,5-dichloropyridin-4-yl)thio)-4-nitro-N-phenethylthiophene-2-carboxamide]		≤ 1 µM
CN1CCN(C(=O)CNC(=O)c2cc([N+](=O)[O-])c(Sc3c(Cl)cncc3Cl)s2)CC1 [Example 218, 5-((3,5-dichloropyridin-4-yl)thio)-N-(2-(4-methylpiperazin-1-yl)-2-oxoethyl)-4-nitrothiophene-2-carboxamide]		1 to 10 µM
CC(C)(C)NC(=O)c1cc([N+](=O)[O-])c(Sc2c(Cl)cncc2Cl)s1 [Example 153, N-(tert-butyl)-5-((3,5-dichloropyridin-4-yl)thio)-4-nitrothiophene-2-carboxamide]		≤ 1 µM
CC(=O)c1cc([N+](=O)[O-])c(Sc2ccc3c(C)cc(=O)oc3c2)s1 [Example 38, 7-[(5-acetyl-3-nitro-2-thienyl)sulfanyl]-4-methyl-chromen-2-one]		> 10 µM
O=C(NCCC1CCN(Cc2ccccc2)C1)c1cc([N+](=O)[O-])c(Sc2c(Cl)cncc2Cl)s1 (stereo not shown) [Example 84, N-(2-(1-benzylpyrrolidin-3-yl)ethyl)-5-((3,5-dichloropyridin-4-yl)thio)-4-nitrothiophene-2-carboxamide]		> 10 µM
COC(=O)c1ccc(CNC(=O)c2cc([N+](=O)[O-])c(Sc3c(Cl)cncc3Cl)s2)cc1 [Example 163, methyl 4-((5-((3,5-dichloropyridin-4-yl)thio)-4-nitrothiophene-2-carboxamido)methyl)benzoate]		≤ 1 µM
CC(C)NC(=O)c1cc([N+](=O)[O-])c(Sc2c(Cl)cncc2Cl)s1 [Example 44, 5-[(3,5-dichloro-4-pyridyl)sulfanyl]-N-isopropyl-4-nitro-thiophene-2-carboxamide]		1 to 10 µM
CC(=O)c1cc([N+](=O)[O-])c(Sc2ccccc2C(F)(F)F)s1 [Example 4, 1-{4-Nitro-5-[2-(trifluoromethyl)phenylsulfanyl]-2-thienyl}ethanone]		1 to 10 µM
O=C(Nc1ccc2c(c1)OCO2)c1cc([N+](=O)[O-])c(Sc2c(Cl)cncc2Cl)s1 [Example 158, N-(benzo[d][1,3]dioxol-5-yl)-5-((3,5-dichloropyridin-4-yl)thio)-4-nitrothiophene-2-carboxamide]		≤ 1 µM
O=C(NCc1cccnc1)c1cc([N+](=O)[O-])c(Sc2c(Cl)cncc2Cl)s1 [Example 101, 5-((3,5-dichloropyridin-4-yl)thio)-4-nitro-N-(pyridin-3-ylmethyl)thiophene-2-carboxamide]		≤ 1 µM
CN1CCN(CCNC(=O)c2cc([N+](=O)[O-])c(Sc3c(Cl)cncc3Cl)s2)CC1 [Example 64, 5-((3,5-dichloropyridin-4-yl)thio)-N-(2-(4-methylpiperazin-1-yl)ethyl)-4-nitrothiophene-2-carboxamide]		1 to 10 µM
O=C(Nc1ccc(F)cc1C(F)(F)F)c1cc([N+](=O)[O-])c(Sc2c(Cl)cncc2Cl)s1 [Example 139, 5-((3,5-dichloropyridin-4-yl)thio)-N-(4-fluoro-2-(trifluoromethyl)phenyl)-4-nitrothiophene-2-carboxamide]		≤ 1 µM
COc1ccc(CNC(C)c2cc([N+](=O)[O-])c(Sc3ccc(Cl)cc3Cl)s2)cc1 (stereo not shown) [Example 30, 1-[5-(2,4-dichlorophenyl)sulfanyl-4-nitro-2-thienyl]-N-[(4-methoxyphenyl)methyl]ethanamine]		> 10 µM
Nc1ccc(NC(=O)c2cc([N+](=O)[O-])c(Sc3c(Cl)cncc3Cl)s2)cc1 [Example 235, N-(4-aminophenyl)-5-((3,5-dichloropyridin-4-yl)thio)-4-nitrothiophene-2-carboxamide]		≤ 1 µM

Reference: patent US8680139B2 (Progenra, priority 2009, dated 2014)
